“Also recorded” adds a separate entry of the source.
What was measured:
L. chagasi promastigotes = experiment: CFSE flow cytometry of promastigote replication in culture; type: cell-based, Leishmania chagasi; details: 100 nM S-59 and 5.4 Joules/cm^2 UVA; days 1-7 in culture
Protocol: The L. chagasi strain (MHOM/BR/00/1669), originally isolated from a patient with visceral leishmaniasis in Northeast Brazil, was maintained by serial intracardiac injection in outbred male golden hamsters. Virulent amastigotes were isolated from hamster spleens removed from animals infected approximately 3 months prior to sacrifice. Promastigotes were cultured in hemoflagellate minimal essential medium (HOMEM) at 26° C. and were used for vaccination or challenge within one month of harvest from the hamsters. Killed But Metabolically Active (KBMA) promastigotes were prepared by incubating late-log or stationary phase organisms in amotosalen (S-59) 100 nM for one hour while shaking at room temperature, followed by cross-linking of DNA using UVA irradiation of aliquots of 2 ml of cells in 6 well plates in an Intercept Illuminator (Cerus Corporation). Radiation dose was 5.4 J/cm^2. […]
A mouse visceral leishmaniasis model employing Leishmania chagasi expressing firefly luciferase was used to test the susceptibility of a eukaryotic pathogen to in vitro inactivation?). […] This UVA dose was determined based on prior experience with Listeria. […] To determine if the S-59 induced decline in luciferase activity was associated with an inability to replicate, live L. chagasi promastigotes were stained with the intracellular dye CFSE and monitored for 1 week in culture.

Leishmania chagasi = experiment: In vitro luciferase assay of parasite metabolic activity after S-59 and UVA; type: cell-based
Protocol: The L. chagasi strain (MHOM/BR/00/1669), originally isolated from a patient with visceral leishmaniasis in Northeast Brazil, was maintained by serial intracardiac injection in outbred male golden hamsters. Virulent amastigotes were isolated from hamster spleens removed from animals infected approximately 3 months prior to sacrifice. Promastigotes were cultured in hemoflagellate minimal essential medium (HOMEM) at 26° C. and were used for vaccination or challenge within one month of harvest from the hamsters. Killed But Metabolically Active (KBMA) promastigotes were prepared by incubating late-log or stationary phase organisms in amotosalen (S-59) 100 nM for one hour while shaking at room temperature, followed by cross-linking of DNA using UVA irradiation of aliquots of 2 ml of cells in 6 well plates in an Intercept Illuminator (Cerus Corporation). Radiation dose was 5.4 J/cm^2. Heat-killed organisms were prepared by incubating in a 100° C. bath for 10 minutes. Transgenic firefly luciferase expressing L. chagasi and L. major were kindly provided by Dr. Beverley. For CFSE-based flow cytometry experiments, promastigotes were stained with CFSE at 5 μM and, shaken at 37° C. for 10 minutes. Parasites were washed three times with PBS and then cultured at an initial concentration of 5×10^6 per ml in HOMEM for in vitro experiments or injected into mice in 200 μL, of PBS at a concentration of 5×10^8 per ml.
Serial measures of parasite luciferase activity were made using a Sirius Single Tube Luminometer (Berthold Detection Systems). Aliquots of cultured organisms were taken daily and combined with 5× reporter lysis buffer per the manufacturer's instructions, and frozen at −80° C. All samples were then snap-thawed at 37° C. on the day of assay. 50 μl samples from each aliquot were combined with 100 μl of luciferin and luminescence was quantified with the luminometer in relative luminsescence units (RLU).
A mouse visceral leishmaniasis model employing Leishmania chagasi expressing firefly luciferase was used to test the susceptibility of a eukaryotic pathogen to in vitro inactivation?). L. chagasi were treated with varying doses of S-59 for 1 hour and then exposed to 5.4 J/cm2 UVA using a commercial illuminator which delivers tightly metered UVA doses to a shaking flask of organisms. This UVA dose was determined based on prior experience with Listeria. After irradiation with UVA, parasites were kept in culture and assayed at various time points for luciferase expression as a measure of metabolic activity. […] To determine if the S-59 induced decline in luciferase activity was associated with an inability to replicate, live L. chagasi promastigotes were stained with the intracellular dye CFSE and monitored for 1 week in culture.

L. chagasi = type: in vivo, Leishmania chagasi; details: for protection (reduction in liver parasite load): pilot experiment, combination of subcutaneous KBMA-LC and topically applied TLR agonist
Protocol: On the day prior to each vaccination, mice were anesthetized by intraperitoneal injection of 0.2 ml a solution of ketamine 9.1 mg/ml and xylazine 0.73 mg/ml. A 2×3 cm patch of fur in the dorsal cervical area was shaved, and 50 mg of adjuvant cream—either imiquimod 5% cream or appropriate vehicle (3M Pharmaceuticals)—was applied topically to the shaved area. On the day of immunization, mice were anesthetized as above. Unfractionated late-log to stationary phase promastigotes (live or KBMA) were spun at 2000 g for 10 minutes, resuspended in PBS, counted on a Neubauer hemocytometer, and volume-adjusted to a final concentration of 10^8 organisms/ml. One hundred micoliters of the appropriate parasite suspension (10^7 organisms) or 100 μl of PBS for controls was subcutaneously injected into the dorsal-cervical area of anesthetized mice using a 28-gauge needle. Adjuvant cream was then applied at the shaved skin site as above. On the day after immunization, adjuvant cream was once again applied topically as above on unanesthetized mice. For each experiment, mice were immunized three times at two-week intervals. Two weeks after the final immunization, mice were challenged by intravenous injection with 10^7 unfractionated late-log to stationary phase promastigotes in 0.2 ml of PBS.
Vaccinated mice were sacrificed by CO2 inhalation 4 weeks after intravenous challenge. Livers and spleens were weighed. Impression smears on glass slides were made from dissected spleen and liver tissue and were then methanol-fixed and amastigotes were detected with Giemsa stain. Organ parasite load was scored by direct microscopy and rendered in Leishman-Donavan Units (LDU), defined as number of parasites divided by number of mammalian cells multiplied by the organ mass in milligrams. At least 500 mammalian cells or 500 parasites were counted by a scorer blinded to the vaccination groups.

splenocytes = experiment: Luminex cytokine production in splenocytes from immunized mice; type: in vivo, BALB/c mice
Protocol: FIG. 11C: Luminex quantitation of cytokine production in splenocytes from L. chagasi immunized BALB/c mice with or without adjuvant 5% imiquimod. Mice were immunized three times at two week as in FIG. 10. Two weeks after the final vaccination, animals were sacrificed and 10^6 splenocytes from each were cultured for 66 hours in either in the presence of live L. chagasi. Supernatants from these cultures were frozen and then subsequently thawed and analyzed by the luminex method using antibodies and antibody coated beads specific for the indicated cyotokines. Bars show concentration of the relevant cytokine in pg/ml+/−SEM.
In a parallel experiment, groups of mice were vaccinated and boosted twice as described above. Splenocytes were harvested from these animals 2 weeks after the third vaccination. Splenocytes were then stimulated with either live LC promastigotes or soluble L. chagasi antigen (SLA) for 66 hours in culture and supernatants were harvested.

| Structure (SMILES) | replication of CFSE stained promastigotes (per parasite fluorescence) (L. chagasi promastigotes) | time by which all detectable metabolic activity was abolished (Leishmania chagasi; 10^7 promastigotes, 100 nM S-59 and 5.4 Joules/cm^2 UVA) [weeks] | luciferase activity by day 21 (Leishmania chagasi; 100 nm S-59 and UVA, culture inoculated at 10^7 per ml) | effect of higher doses of S-59 on luciferase activity (Leishmania chagasi; doses higher than 100 nM, with UVA, data not shown) | S-59 dose leading to breakthrough outgrowth of parasites (Leishmania chagasi; with 5.4 J/cm2 UVA, data not shown) | effect of adjuvant only (L. chagasi; Example 3, imiquimod 5% without whole cell vaccine (PBS)) | effect of adjuvant cream compared to control vehicle cream (L. chagasi; Example 3, topical 5% cream in each vaccination group) | protection (reduction in liver parasite load) (L. chagasi) [%] | pattern of cytokine expression, whole cell vaccines with adjuvant versus vehicle (splenocytes; imiquimod 5% with whole cell vaccines) | cytokine production, PBS with adjuvant versus PBS with vehicle (splenocytes; imiquimod 5% without whole cell vaccine) |
| --- | --- | --- | --- | --- | --- | --- | --- | --- | --- | --- |
| Cc1oc2c(C)c3oc(=O)cc(C)c3cc2c1COCCN [S-59, amotosalen] | no such diminution; also recorded: arrests replication | ≤ 3 | approaches baseline luminescence from PBS | more rapid decline in luciferase activity | lower than 50 nM | – | – | – | – | – |
| CC(C)Cn1cnc2c(N)nc3ccccc3c21 [imiquimod, 1-isobutyl-1H-imidazo[4,5-c]quinolin-4-amine] | – | – | – | – | – | trend towards a protective effect | additional protection | 68 | increased IFN-γ but decreased IL-10, IL-4, and IL-5 | no increase in cytokine production |
| CCOCc1nc2c(N)nc3ccccc3c2n1CC(C)(C)O [resiquimod, 4-Amino-2-(ethoxymethyl)-a,a-dimethyl-1H-imidazo[4,5-c]quinoline-1-ethanol] | – | – | – | – | – | – | – | 87 | – | – |

— patent US8709445B2, “Vaccination with killed but metabolically active (KBMA) protozoans with toll-like receptor agonists” (priority 2007, dated 2014)
